Test results from patent US20080200454A1, “CARBON-LINKED TETRAHYDRO-PYRAZOLO-PYRIDINE MODULATORS OF CATHEPSIN S” (priority 2007, published 2008).
Read-outs that look alike come from different tables or passages of the source.

Molecular target: Recombinant human cathepsin S (CatS) (Homo sapiens, UniProt P25774)
Assay: Recombinant human cathepsin S (CatS) inhibition assay, fluorogenic substrate Z-Valine-Valine-Arginine-AMC;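 note: Baculovirus-expressed CatS in pH 5.0 sodium acetate buffer with DTT and NaCl, fluorescence read each minute over 20 min, inhibition derived from rate slope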

Sequence of Recombinant human cathepsin S (CatS) (P25774 115-331): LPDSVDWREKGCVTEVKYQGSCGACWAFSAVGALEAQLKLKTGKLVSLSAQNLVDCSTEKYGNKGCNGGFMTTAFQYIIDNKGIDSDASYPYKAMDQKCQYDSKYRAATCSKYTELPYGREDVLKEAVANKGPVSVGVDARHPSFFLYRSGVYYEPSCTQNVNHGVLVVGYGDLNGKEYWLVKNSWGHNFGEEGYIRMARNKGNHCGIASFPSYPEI

SMILES	IC50 (CatS IC50)	IC50
COC(=O)CNCc1ccc(C#Cc2cc(-c3nn(CCCN4CCOCC4)c4c3CN(S(C)(=O)=O)CC4)ccc2Cl)cc1 [Example 347, Methyl N-{[4-({2-chloro-5-[5-(methylsulfonyl)-1-(3-morpholin-4-ylpropyl)-4,5,6,7-tetrahydro-1H-pyrazolo[4,3-c]pyridin-3-yl]phenyl}ethynyl)phenyl]methyl}glycinate]	610 nM	–
CS(=O)(=O)N1CCc2c(c(-c3ccc(Cl)c(C#Cc4ccc(CNCC(F)(F)F)cc4)c3)nn2CCCN2CCC(N3CCCC3=O)CC2)C1 [Example 348, 1-(1-{3-[3-{4-Chloro-3-[(4-{[(2,2,2-trifluoroethyl)amino]methyl}phenyl)ethynyl]phenyl}-5-(methylsulfonyl)-4,5,6,7-tetrahydro-1H-pyrazolo[4,3-c]pyridin-1-yl]propyl}piperidin-4-yl)pyrrolidin-2-one]	100 nM	–
C=CCNCc1ccc(C#Cc2cc(-c3nn(CCCN4CCOCC4)c4c3CN(S(C)(=O)=O)CC4)ccc2Cl)cc1 [Example 349, N-{[4-({2-Chloro-5-[5-(methylsulfonyl)-1-(3-morpholin-4-ylpropyl)-4,5,6,7-tetrahydro-1H-pyrazolo[4,3-c]pyridin-3-yl]phenyl}ethynyl)phenyl]methyl}prop-2-en-1-amine]	550 nM	–
CS(=O)(=O)N1CCc2c(c(-c3ccc(Cl)c(C#Cc4ccc(CNCc5ccc(Cl)cc5)cc4)c3)nn2CCCN2CCC(C(N)=O)CC2)C1 [Example 350, 1-{3-[3-(4-Chloro-3-{[4-({[(4-chlorophenyl)methyl]amino}methyl)phenyl]ethynyl}phenyl)-5-(methylsulfonyl)-4,5,6,7-tetrahydro-1H-pyrazolo[4,3-c]pyridin-1-yl]propyl}piperidine-4-carboxamide]	–	40 nM
COC(=O)[C@@H](NCc1ccc(C#Cc2cc(-c3nn(CCCN4CCOCC4)c4c3CN(S(C)(=O)=O)CC4)ccc2Cl)cc1)c1ccccc1 [Example 351, Methyl (2S)-({[4-({2-chloro-5-[5-(methylsulfonyl)-1-(3-morpholin-4-ylpropyl)-4,5,6,7-tetrahydro-1H-pyrazolo[4,3-c]pyridin-3-yl]phenyl}ethynyl)phenyl]methyl}amino)(phenyl)ethanoate]	–	120 nM
CS(=O)(=O)N1CCc2c(c(-c3ccc(Cl)c(C#Cc4ccc(CN[C@@H](CO)c5ccccc5)cc4)c3)nn2CCCN2CCC(N3CCCC3=O)CC2)C1 [Example 352, 1-(1-{3-[3-(4-Chloro-3-{[4-({[(1R)-2-hydroxy-1-phenylethyl]amino}methyl)phenyl]ethynyl}phenyl)-5-(methylsulfonyl)-4,5,6,7-tetrahydro-1H-pyrazolo[4,3-c]pyridin-1-yl]propyl}piperidin-4-yl)pyrrolidin-2-one]	–	20 nM
CC(=O)N1CCN(CCCn2nc(-c3ccc(Cl)c(C#Cc4ccc(CNCc5ccc(Cl)cc5)cc4)c3)c3c2CCN(S(C)(=O)=O)C3)CC1 [Example 353, 1-{4-[(5-{1-[3-(4-Acetylpiperazin-1-yl)propyl]-5-(methylsulfonyl)-4,5,6,7-tetrahydro-1H-pyrazolo[4,3-c]pyridin-3-yl}-2-chlorophenyl)ethynyl]phenyl}-N-[(4-chlorophenyl)methyl]methanamine]	150 nM	–
CN1CCN(CCCn2nc(-c3ccc(Cl)c(C#Cc4ccc(CNCc5ccc(Cl)cc5)cc4)c3)c3c2CCN(S(C)(=O)=O)C3)CC1 [Example 354, 1-{4-[(2-Chloro-5-{1-[3-(4-methylpiperazin-1-yl)propyl]-5-(methylsulfonyl)-4,5,6,7-tetrahydro-1H-pyrazolo[4,3-c]pyridin-3-yl}phenyl)ethynyl]phenyl}-N-[(4-chlorophenyl)methyl]methanamine]	360 nM	–
CC1(C)CCN(CCCn2nc(-c3ccc(Cl)c(C#Cc4ccc(CNCc5ccc(Cl)cc5)cc4)c3)c3c2CCN(S(C)(=O)=O)C3)CC1 [Example 355, 1-{4-[(2-Chloro-5-{1-[3-(4,4-dimethylpiperidin-1-yl)propyl]-5-(methylsulfonyl)-4,5,6,7-tetrahydro-1H-pyrazolo[4,3-c]pyridin-3-yl}phenyl)ethynyl]phenyl}-N-[(4-chlorophenyl)methyl]methanamine]	110 nM	–
CS(=O)(=O)N1CCc2c(c(-c3ccc(Cl)c(C#Cc4ccc(CNCc5ccc(Cl)cc5)cc4)c3)nn2CCCN2CCC(NC(=O)CO)CC2)C1 [Example 356, N-(1-{3-[3-(4-Chloro-3-{[4-({[(4-chlorophenyl)methyl]amino}methyl)phenyl]ethynyl}phenyl)-5-(methylsulfonyl)-4,5,6,7-tetrahydro-1H-pyrazolo[4,3-c]pyridin-1-yl]propyl}piperidin-4-yl)-2-hydroxyacetamide]	–	20 nM
CS(=O)(=O)N1CCc2c(c(-c3ccc(Cl)c(C#Cc4ccc(CNCc5ccc(Cl)cc5)cc4)c3)nn2CCCN2CCC(F)(F)CC2)C1 [Example 357, 1-{4-[(2-Chloro-5-{1-[3-(4,4-difluoropiperidin-1-yl)propyl]-5-(methylsulfonyl)-4,5,6,7-tetrahydro-1H-pyrazolo[4,3-c]pyridin-3-yl}phenyl)ethynyl]phenyl}-N-[(4-chlorophenyl)methyl]methanamine]	210 nM	–
CS(=O)(=O)N1CCc2c(c(-c3ccc(Cl)c(C#Cc4ccc(CNCc5ccc(Cl)cc5)cc4)c3)nn2CCCN2CCC(F)CC2)C1 [Example 358, 1-{4-[(2-Chloro-5-{1-[3-(4-fluoropiperidin-1-yl)propyl]-5-(methylsulfonyl)-4,5,6,7-tetrahydro-1H-pyrazolo[4,3-c]pyridin-3-yl}phenyl)ethynyl]phenyl}-N-[(4-chlorophenyl)methyl]methanamine]	–	100 nM
CS(=O)(=O)NC1CCN(CCCn2nc(-c3ccc(Cl)c(C#Cc4ccc(CNCc5ccc(Cl)cc5)cc4)c3)c3c2CCN(S(C)(=O)=O)C3)CC1 [Example 359, N-(1-{3-[3-(4-Chloro-3-{[4-({[(4-chlorophenyl)methyl]amino}methyl)phenyl]ethynyl}phenyl)-5-(methylsulfonyl)-4,5,6,7-tetrahydro-1H-pyrazolo[4,3-c]pyridin-1-yl]propyl}piperidin-4-yl)methanesulfonamide]	80 nM	–
CS(=O)(=O)N1CCc2c(c(-c3ccc(Cl)c(C#Cc4ccc5c(c4)CNCC5)c3)nn2CCCN2CCOCC2)C1 [Example 360, 7-({2-Chloro-5-[5-(methylsulfonyl)-1-(3-morpholin-4-ylpropyl)-4,5,6,7-tetrahydro-1H-pyrazolo[4,3-c]pyridin-3-yl]phenyl}ethynyl)-1,2,3,4-tetrahydroisoquinoline]	–	170 nM
CS(=O)(=O)N1CCc2c(c(-c3ccc(Cl)c(C#Cc4ccc(CNCc5ccc(Cl)cc5)cc4)c3)nn2CC(O)CN2CCCCC2)C1 (stereo not shown) [Example 361, 1-[3-(4-Chloro-3-{[4-({[(4-chlorophenyl)methyl]amino}methyl)phenyl]ethynyl}phenyl)-5-(methylsulfonyl)-4,5,6,7-tetrahydro-1H-pyrazolo[4,3-c]pyridin-1-yl]-3-piperidin-1-ylpropan-2-ol]	–	170 nM
CC(=O)NC1CCN(CC(O)Cn2nc(-c3ccc(Cl)c(C#Cc4ccc(CNCc5ccc(Cl)cc5)cc4)c3)c3c2CCN(S(C)(=O)=O)C3)CC1 (stereo not shown) [Example 362, N-(1-{3-[3-(4-Chloro-3-{[4-({[(4-chlorophenyl)methyl]amino}methyl)phenyl]ethynyl}phenyl)-5-(methylsulfonyl)-4,5,6,7-tetrahydro-1H-pyrazolo[4,3-c]pyridin-1-yl]-2-hydroxypropyl}piperidin-4-yl)acetamide]	–	50 nM
CS(=O)(=O)N1CCc2c(c(-c3ccc(Cl)c(C#Cc4ccc(CNCc5ccc(Cl)cc5)cc4)c3)nn2CC(O)CN2CCC(C(N)=O)CC2)C1 (stereo not shown) [Example 363, 1-{3-[3-(4-Chloro-3-{[4-({[(4-chlorophenyl)methyl]amino}methyl)phenyl]ethynyl}phenyl)-5-(methylsulfonyl)-4,5,6,7-tetrahydro-1H-pyrazolo[4,3-c]pyridin-1-yl]-2-hydroxypropyl}piperidine-4-carboxamide]	–	90 nM
CS(=O)(=O)N1CCc2c(c(-c3ccc(Cl)c(C#Cc4ccc5c(c4)CN(C(=O)C(F)(F)F)C5)c3)nn2CCCN2CCOCC2)C1 [Example 364, 3-(4-Chloro-3-{[2-(trifluoroacetyl)-2,3-dihydro-1H-isoindol-5-yl]ethynyl}phenyl)-5-(methylsulfonyl)-1-(3-morpholin-4-ylpropyl)-4,5,6,7-tetrahydro-1H-pyrazolo[4,3-c]pyridine]	170 nM	–
CS(=O)(=O)N1CCc2c(c(-c3ccc(Cl)c(C#Cc4ccc5c(c4)CCNC5)c3)nn2CCCN2CCOCC2)C1 [Example 365, 6-({2-Chloro-5-[5-(methylsulfonyl)-1-(3-morpholin-4-ylpropyl)-4,5,6,7-tetrahydro-1H-pyrazolo[4,3-c]pyridin-3-yl]phenyl}ethynyl)-1,2,3,4-tetrahydroisoquinoline]	–	280 nM
CS(=O)(=O)N1CCc2c(c(-c3ccc(Cl)c(C#Cc4cccc5c4CNCC5)c3)nn2CCCN2CCOCC2)C1 [Example 366, 8-({2-Chloro-5-[5-(methylsulfonyl)-1-(3-morpholin-4-ylpropyl)-4,5,6,7-tetrahydro-1H-pyrazolo[4,3-c]pyridin-3-yl]phenyl}ethynyl)-1,2,3,4-tetrahydroisoquinoline]	–	680 nM
CC(C)(C)OC(=O)N1CCN(CCCn2nc(-c3ccc(Cl)c(C#Cc4ccc(CNCc5ccc(Cl)cc5)cc4)c3)c3c2CCN(S(C)(=O)=O)C3)CC1 [Example 367, 1,1-Dimethylethyl 4-{3-[3-(4-chloro-3-{[4-({[(4-chlorophenyl)methyl]amino}methyl)phenyl]ethynyl}phenyl)-5-(methylsulfonyl)-4,5,6,7-tetrahydro-1H-pyrazolo[4,3-c]pyridin-1-yl]propyl}piperazine-1-carboxylate]	90 nM	–
CS(=O)(=O)N1CCc2c(c(-c3ccc(Cl)c(C#Cc4ccc(CNCc5ccc(Cl)cc5)cc4)c3)nn2CCCN2CCNCC2)C1 [Example 368, 1-[4-({2-Chloro-5-[5-(methylsulfonyl)-1-(3-piperazin-1-ylpropyl)-4,5,6,7-tetrahydro-1H-pyrazolo[4,3-c]pyridin-3-yl]phenyl}ethynyl)phenyl]-N-[(4-chlorophenyl)methyl]methanamine]	330 nM	–
